Patent US7875606B2, “Izoxazoline derivative and herbicide” (Ihara Chemical Industry Co., Ltd., priority 2001, dated 2011)

Assays:
Type in all cases: in vivo
[1] = test system: Echinochloa oryzicola Vasing.; experiment: Herbicidal effect by paddy field pre-emergence treatment; conditions: wettable powder, active ingredient 1000 g/ha, examined at the 21st day from the treatment
Procedure: (§1) Test For Herbicidal Effect By Paddy Field Pre-Emergence Treatment
(§2) A paddy field soil was filled in a plastic pot of 100 cm^2 and subjected to puddling. Then, seeds of Echinochloa oryzicola Vasing. and Monochoria vaginalis (Murm. f.) Presl var. plantaginea (Roxb.) Solms-Laub. were sowed and water was filled in a depth of 3 cm. Next day, wettable powders produced in accordance with the Formulation 1 were diluted with water and dropped on the water surface. The application amount of each wettable powder was 1,000 g per 1 hectare in terms of the active ingredient. Then, breeding was made in a greenhouse, and the herbicidal effect of each wettable powder was examined at the 21st day from the treatment in accordance with the standard shown in Table 61.

[2] = test system: Monochoria vaginalis (Murm. f.) Presl var. plantaginea (Roxb.) Solms-Laub.; experiment: as above; conditions: wettable powder, active ingredient 1000 g/ha, examined at the 21st day from the treatment
Procedure: as §1, §2

[3] = test system: Echinochloa crus-galli (L.) Beauv. var. crus-galli; experiment: Herbicidal effect by upland field pre-emergence treatment; conditions: sprayed on the soil surface, active ingredient 1000 g/ha, examined at the 21st day from the treatment
Procedure: (§3) Test For Herbicidal Effect By Upland Field Pre-Emergence Treatment An upland field soil was filled in a plastic pot of 80 cm^2. Seeds of Echinochloa crus-galli (L.) Beauv. var. crus-galli and Setaria viridis (L.) Beauv. were sowed, followed by covering with the same soil. Wettable powders produced in accordance with the Formulation 1 were diluted with water and sprayed uniformly on the soil surface using a small sprayer, in an amount of 1,000 liters per 1 hectare so that the amount of each active ingredient became 1,000 g per 1 hectare. Then, breeding was made in a greenhouse, and the herbicidal effect of each wettable powder was examined at the 21st day from the treatment in accordance with the standard shown in Table 61.

[4] = test system: Setaria viridis (L.) Beauv.; experiment: as above; conditions: sprayed on the soil surface, active ingredient 1000 g/ha, examined at the 21st day from the treatment
Procedure: as §3

Cn1nc(C(F)(F)F)c(CS(=O)(=O)C2=NOC(C)(CCl)C2)c1Cl (stereo not shown) [Compound 2, 3-(5-chloro-1-methyl-3-trifluoromethyl-1H-pyrazol-4-ylmethylsulfonyl)-5-chloromethyl-5-methyl-2-isoxazoline]
5: Herbicidal effect index, Echinochloa oryzicola Vasing [1] | Herbicidal effect index, Monochoria vaginalis (Burm. f) Presl Var. plantaginea (Roxb.) Solms-Laub. [2] | Herbicidal effect index, Echinochloa crus-galli (L.) Beauv. Var. crus-galli [3] | Herbicidal effect index, Setaria viridis (L.) Beauv. [4]
